pKi: −log10 of the molar value.

The first assay concerns the target T1, Phenylethanolamine N-methyltransferase (Homo sapiens, UniProt P11086).
T1 sequence (P11086 whole entry): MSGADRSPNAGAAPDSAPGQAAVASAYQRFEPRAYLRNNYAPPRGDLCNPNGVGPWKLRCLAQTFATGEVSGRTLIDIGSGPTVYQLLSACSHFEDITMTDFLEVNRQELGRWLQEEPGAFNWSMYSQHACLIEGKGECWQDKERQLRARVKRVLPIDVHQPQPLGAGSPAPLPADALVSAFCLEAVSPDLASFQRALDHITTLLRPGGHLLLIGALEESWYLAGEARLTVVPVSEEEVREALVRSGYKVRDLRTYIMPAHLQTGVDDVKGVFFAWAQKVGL
Briefly: Binding affinity to human PNMT expressed in Escherichia coli by radiochemical assay.
A word on the pKi: it is −log10 of the Ki, conventionally taken in molar units. Read a high pKi as a low Ki. The compound `c1ccc2c(c1)CCNC2` [1,2,3,4-TETRAHYDROISOQUINOLINE] had a pKi of 5.24.

Test system in a further assay: not listed separately
Briefly: Selectivity for human PNMT over rat Adrenergic alpha-2 receptor.
As to `c1ccc2c(c1)CCNC2` [1,2,3,4-TETRAHYDROISOQUINOLINE], the Selectivity ratio amounted to 0.06.

The target of the next assay is T2, Adrenergic receptor alpha-2 (Rattus norvegicus, UniProt P22086+P19328+P22909).
T2 sequence (P22086 whole entry): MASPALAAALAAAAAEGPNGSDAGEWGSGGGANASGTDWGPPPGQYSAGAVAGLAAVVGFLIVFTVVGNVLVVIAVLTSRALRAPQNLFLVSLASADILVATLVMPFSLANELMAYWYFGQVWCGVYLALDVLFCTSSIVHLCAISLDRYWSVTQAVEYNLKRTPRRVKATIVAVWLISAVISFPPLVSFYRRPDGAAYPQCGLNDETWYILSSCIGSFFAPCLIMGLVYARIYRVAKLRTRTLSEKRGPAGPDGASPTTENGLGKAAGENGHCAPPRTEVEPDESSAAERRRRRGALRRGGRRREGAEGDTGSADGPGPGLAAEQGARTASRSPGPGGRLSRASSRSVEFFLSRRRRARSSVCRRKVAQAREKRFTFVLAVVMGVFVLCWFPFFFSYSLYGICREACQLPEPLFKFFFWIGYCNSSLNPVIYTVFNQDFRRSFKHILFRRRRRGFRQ
T2 sequence (P19328 whole entry): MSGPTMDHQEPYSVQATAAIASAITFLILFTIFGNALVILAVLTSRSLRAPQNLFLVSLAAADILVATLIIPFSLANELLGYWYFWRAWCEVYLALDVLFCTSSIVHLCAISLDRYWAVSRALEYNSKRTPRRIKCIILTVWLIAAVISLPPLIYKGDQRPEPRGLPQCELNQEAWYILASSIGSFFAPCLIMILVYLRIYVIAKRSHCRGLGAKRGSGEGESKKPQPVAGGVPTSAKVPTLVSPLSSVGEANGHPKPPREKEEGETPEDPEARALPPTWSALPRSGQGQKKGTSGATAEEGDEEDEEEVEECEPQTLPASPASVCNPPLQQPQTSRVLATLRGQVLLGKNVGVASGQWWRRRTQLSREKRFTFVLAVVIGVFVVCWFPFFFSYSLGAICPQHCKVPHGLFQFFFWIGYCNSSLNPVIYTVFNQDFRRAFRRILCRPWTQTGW
T2 sequence (P22909 whole entry): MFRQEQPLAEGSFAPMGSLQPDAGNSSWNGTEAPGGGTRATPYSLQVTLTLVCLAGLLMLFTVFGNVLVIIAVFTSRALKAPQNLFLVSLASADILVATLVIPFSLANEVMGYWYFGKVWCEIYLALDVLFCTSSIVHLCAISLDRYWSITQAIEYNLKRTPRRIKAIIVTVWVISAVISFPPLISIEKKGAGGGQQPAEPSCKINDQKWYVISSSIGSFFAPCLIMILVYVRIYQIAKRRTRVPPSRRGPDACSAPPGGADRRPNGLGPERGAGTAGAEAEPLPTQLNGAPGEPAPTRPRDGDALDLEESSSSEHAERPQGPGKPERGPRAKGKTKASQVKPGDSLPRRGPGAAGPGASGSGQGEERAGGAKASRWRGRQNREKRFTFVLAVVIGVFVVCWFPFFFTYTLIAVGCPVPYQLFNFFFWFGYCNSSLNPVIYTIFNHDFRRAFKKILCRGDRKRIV
Briefly: Displacement of [3H]clonidine from Sprague-Dawley rat cortex adrenergic alpha 2 receptor.
For orientation: Ki means the equilibrium dissociation constant of an inhibitor or competing ligand from its target. A lower Ki goes with higher affinity. Compound `O=S(=O)(CCC(F)(F)F)c1ccc2c(c1)CNC(CF)C2` (stereo not given) gave an inhibitory constant (Ki) of more than 1000 µM.

For `CCCS(=O)(=O)c1ccc2c(c1)CNC(CF)C2` (stereo not given), the inhibition constant Ki amounted to 690 µM. As for `O=S(=O)(Cc1ccc(Cl)cc1)c1ccc2c(c1)CNC(CF)C2` (stereo not given), the inhibition constant (Ki) is more than 1000 µM. On the same count and under the same terms, in the case of `O=S(=O)(CC(F)(F)F)c1ccc2c(c1)CNC(CF)C2` (stereo not given) it was 740 µM; in that of `COCCCS(=O)(=O)c1ccc2c(c1)CNC(CF)C2` (stereo not given), 1200 µM; in that of `O=S(=O)(CCCC(F)(F)F)c1ccc2c(c1)CNC(CF)C2` (stereo not given), more than 1000 µM.

`CCCCS(=O)(=O)c1ccc2c(c1)CNC(CF)C2` (stereo not given) showed an inhibition constant Ki of 540 µM. `CCS(=O)(=O)c1ccc2c(c1)CNC(CF)C2` (stereo not given): the inhibitory constant (Ki) worked out at 1100 µM.

Source of the values: ChEMBL document CHEMBL1149484, “Comparison of the binding of 3-fluoromethyl-7-sulfonyl-1,2,3,4-tetrahydroisoquinolines with their isosteric sulfonamides to the active site of phenylethanolamine N-methyltransferase” (J Med Chem, 2006).
